The values below come from patent US20130217594A1, “METHODS FOR SCREENING COMPOUNDS FOR CAPABILITY TO INHIBIT PREMALIGNANT SQUAMOUS EPITHELIAL CELL PROGRESSION TO A MALIGNANT STATE” (Institute for Cancer Research d/b/a The Research Center of …, priority 2010, published 2013).

Format in all cases: cell-based, human
In data set [1] the test system is MSK-Leuk1 cells. The data set can be described thus: Apoptosis assay (Guava Nexin, annexin V). Conditions: for decrease of apoptosis: E2 1 nM, 72 h. As for the experimental part:
Apoptosis assay. Apoptosis was assessed using the Guava Nexin® (Millipore Corp., Billerica, Mass.). Fifty thousand cells were plated per well in 6-well plates. After the appropriate treatment, floating cells were collected, combined with attached cells following trypsinization, and resuspended in DermaLife® K Medium (Lifeline Cell Technology, Walkersville, Md.) supplemented with 5% FBS. The cell suspension (100 μl) was incubated with 100 μl of Guava Nexin® Reagent for 20 min, according to the manufacturer's instructions. Two thousand cells were analyzed from each sample using the Guava EasyCyte™ system, and the resulting data were expressed as a percentage of apoptotic cells (annexin V positive cells/total number of cells counted).

The test system of data set [2] is MSK-Leuk1 cells. The data set can be described thus: Quantitative real-time RT-PCR of transcript levels after E2 exposure, MSK-Leuk1 cells. Conditions: E2 1 nM. On the procedure:
For all the experiments that involved estradiol (E2) exposure, MSK-Leuk1 cells were cultured in phenol red-free and serum-free DermaLife K Medium (Lifeline Cell Technology, Walkersville, Md.). SCC cells were cultured in their respective media with no phenol red, supplemented with charcoal-stripped serum (Gibco, Carlsbad, Calif.). Cells were incubated for 48 h to remove endogenous estrogens and then plated at 70% confluence. After 24 h, the medium was replaced with either control medium containing vehicle (0.01% ethanol) or medium supplemented with 1 nM E2 (Sigma-Aldrich, St. Louis, Mo.). Cells were harvested after the appropriate treatment period and analyzed.
Quantitative real-time reverse transcription PCR. RNA was extracted from pelleted cultured cells using the RNeasy Mini kit (Qiagen, Valencia, Calif.) and its quality (18S and 28S RNA) was evaluated by gel electrophoresis. cDNA was synthesized from 1 μg of total RNA, using the High Capacity cDNA Archive Kit (Applied Biosystems, Inc., Foster City, Calif.). Three μl of the resulting cDNA were mixed with 12.5 μl of 2× TaqMan® Universal PCR master mix and 1.25 μL of 20× primer mix (Applied Biosystems) in a final reaction volume of 25 μL, according to the manufacturer's instructions. Reactions were performed in triplicate in an Applied Biosystems 7900HT Fast Real-Time PCR System using universal conditions. Transcript levels were quantified and expressed relative to those of the human transferrin receptor (TFRC) as 2^-ΔCt.

Data set [3] relates to MSK-Leuk1 cells. The data set can be described thus: Cell proliferation (total DNA, Fluorescent DNA Quantitation kit). Conditions: vector-expressing MSK-Leuk1 cells, E2 1 nM, 72 h, not statistically significant. As for the experimental part: Cell proliferation. Fifty thousand cells/well were plated in 6-well plates. After the appropriate treatment, the DNA content of the cells, an indirect measure of proliferation, was determined using a Fluorescent DNA Quantitation kit (Bio-Rad Laboratories, Hercules, Calif.). In brief, cells were harvested, sonicated in 0.1× TEN assay buffer (Bio-Rad Laboratories) for 5 s, and incubated with a Hoechst dye mixture (BioRad Laboratories) for 1 h. Total DNA was measured using Fluoroscan Ascent FL (Thermo Fisher Scientific, Waltham, Mass.) at an excitation wavelength of 360 nm and an emission wavelength of 460 nm.

Another data set relates to HNSCC cells. Briefly: Quantitative real-time RT-PCR of transcript levels after E2 exposure, HNSCC cells. Conditions: E2 1 nM, 24 h. On the procedure:
Cell lines and treatments. MSK-Leuk1 cells were derived from a dysplastic leukoplakia lesion located adjacent to a SCC of the tongue. MSK-Leuk1 cells were cultured in KGM medium (Lonza, Walkersville, Md.). MSK-Leuk1 cells (passage 33) were determined to be identical to the early passage MSK-Leuk1 cells (Identity Mapping Kit, Coriell Institute for Medical Research, Camden, N.J.). All HNSCC cell lines were derived from patients with SCC of the tongue. SCC9 ([…]) and SCC15 ([…]) cells were cultured in S-MEM medium, supplemented with 2 mM L-glutamine, 100 units/ml penicillin, 100 μg/ml streptomycin and 10% FBS. […]
For all the experiments that involved estradiol (E2) exposure, MSK-Leuk1 cells were cultured in phenol red-free and serum-free DermaLife K Medium (Lifeline Cell Technology, Walkersville, Md.). […] Cells were harvested after the appropriate treatment period and analyzed.
Quantitative real-time reverse transcription PCR. RNA was extracted from pelleted cultured cells using the RNeasy Mini kit (Qiagen, Valencia, Calif.) and its quality (18S and 28S RNA) was evaluated by gel electrophoresis. cDNA was synthesized from 1 μg of total RNA, using the High Capacity cDNA Archive Kit (Applied Biosystems, Inc., Foster City, Calif.). […] Transcript levels were quantified and expressed relative to those of the human transferrin receptor (TFRC) as 2^-ΔCt.

Data set [4] has as its system MSK-Leuk1 cells. Briefly: Cell motility assay (scratch gap closure). Conditions: vector or CYP1B1 shRNA, E2 1 nM, 16 h post-scratch. As for the experimental part:
Cell motility assay. MSK-Leuk1 cells, expressing either vector or CYP1B1 shRNA, were cultured in phenol red-free and serum-free medium for 48 h and then plated at 70% confluence. After 24 h, the cells were treated with either vehicle or E2 (1 nM) in triplicate, as described above. When cells reached 100% confluence (48 h later), the surface of the cell culture dish was carefully scratched using a micropipette tip, thus making an evenly distributed gap in the cell monolayer. The medium was replaced, and five representative images of each gap were acquired at 0 h using a Nikon TE-2000U wide field inverted microscope (Optical Apparatus Co., Ardmore, Pa.) equipped with a Roper Scientific Cool Snap HQ camera. Another set of 5-10 representative images per gap was obtained following a 16-h incubation. The area devoid of cells was measured on every image using MetaMorph 7.0 (Molecular Devices, Inc., Sunnyvale, Calif.). The gap closure percentages were calculated as (area at 0 h−area at 16 h)/(area at 0 h).
In addition, a time-lapse movie capturing the process of gap closure in vector-expressing MSK-Leuk1 cells was obtained. The medium was replaced with fresh medium containing 25 mM HEPES buffer, and cells were allowed to incubate for 1 h at 37° C. […] The percentage of proliferating cells (those rounded up for cell division) was counted in this representative area.

As for `C[C@]12CC[C@@H]3c4ccc(O)cc4CC[C@H]3[C@@H]1CC[C@@H]2O` [E2, 17β-estradiol], the decrease of apoptosis with MSK-Leuk1 cells [1] (CYP1B1 shRNA-expressing MSK-Leuk1 cells, P=0.015) is recorded as 30.1%; with MSK-Leuk1 cells [1] (vector-expressing MSK-Leuk1 cells, P=0.030) it was 25.5%. Besides, in the data set on MSK-Leuk1 cells [2], the “levels of COMT and ERβ transcripts post-treatment” value is recorded as “remained unaltered”. Also, in the data set with MSK-Leuk1 cells [2] (24 h, P=0.0004), the “induction of CYP1B1 transcript levels over vehicle-treated controls” value is reported as 2.3 fold. In the data set with MSK-Leuk1 cells [2] (time course), the “time of peak induction of CYP1B1 transcripts” value worked out at 6 h. In addition, the “increase of cell proliferation” value in the data set on MSK-Leuk1 cells [3] came out at 10%. The “levels of ERβ, CYP1B1 and COMT transcripts” value in the data set on HNSCC cells is reported as “did not alter the level of any of the transcripts of interest”. Also, the “effect of treatment on motility (gap closure)” value in the data set with MSK-Leuk1 cells [4] is “not affected”.

For `C[C@]12CC[C@@H]3c4ccc(O)cc4C[C@@H](CCCCCCCCC[S+]([O-])CCCC(F)(F)C(F)(F)F)[C@H]3[C@@H]1CC[C@@H]2O` (stereo partly drawn) [fulvestrant], the “effect on E2-mediated decrease in apoptosis” value in the data set on MSK-Leuk1 cells [1] (MSK-Leuk1 cells, fulvestrant 1 μM added to E2 1 nM) is on record as “restored”.
